These results are taken from patent publication US20230057071A1 (NOVARTIS AG, priority 2019, published 2023).

The test system of series [1] is AML PDX model HAMLX21432 (IDH1R132H). The format is in vivo. As to the method:
MBG453 was administered i.p. at 10 mg/kg, once weekly (starting at day 6 of dosing) either as a single agent or in combination with decitabine i.p. at 1 mg/kg, once daily for a total of 5 doses (from initiation of dosing). Initial group size: 4 animals. […] All final data were recorded on day 56. Leukemic burden was measured as a percentage of human CD45+ cells in peripheral blood by FACS analysis.
(§1) The activity of MBG453 with and without decitabine was evaluated in two AML patient-derived xenograft (PDX) models, HAMLX21432 and HAMLX5343. Decitabine (TCI America) was formulated in dextrose 5% in water (D5W) freshly prior to each dose and administered daily for 5 days. It was administered at 10 mL/kg intraperitoneal (i.p.), for a final dose […]. MBG453 was formulated to a final concentration of 1 mg/mL in PBS. It was administered weekly at a volume of 10 mL/kg, i.p., for a final dose of 10 mg/kg, with treatment initiating on dosing day 6, 24 hours after the final dose of decitabine.
Treatments were initiated on the day of randomization and continued for 21 days.

For series [2], the system named is AML PDX model HAMLX5343 (KRASG12D, WT1, PTPN11). The series is classed as in vivo. As to the method: Initial group size: 4 animals. […] All final data were recorded on day 56.
as §1

For series [3] the following is noted: cited from earlier work.
Series [4] has as its target T1, TIM-3/Galectin-9 interaction (Homo sapiens, UniProt Q8TDQ0).
T1 construct: purchased R&D Systems
The experiment in a line: Plate-based (MesoScale) competition assay of the TIM-3/Galectin-9 interaction. The format is binding. Particulars: serial dilutions of antibody; labeled Galectin-9 100 nM. As for the experimental part: FIG. 1 is a graph depicting the impact of MBG453 on the interaction between TIM3 and galectin-9. Competition was assessed as a measure of the ability of the antibody to block Gal9-SULFOTag signal to TIM-3 receptor, which is shown on the Y-axis. Concentration of the antibody is shown on the X-axis.
TIM-3 fusion protein (R&D Systems) was coated on a standard MesoScale 96 well plate (Meso Scale Discovery) at 2 μg/ml in PBS (Phosphate Buffered Saline) and incubated for six hours at room temperature. The plate was washed three times with PBST (PBS buffer containing 0.05% Tween-20) and blocked with PBS containing 5% Probumin (Millipore) overnight at 4° C. After incubation, the plate was washed three times with PBST and unlabeled antibody (F38-2E2 (BioLegend); MBG453; MBG453 F(ab′)2; MBG453 F(ab); or control recombinant human Galectin-9 protein) diluted in Assay Diluent (2% Probumin, 0.1% Tween-20, 0.1% Triton X-100 (Sigma) with 10% StabilGuard (SurModics)), was added in serial dilutions to the plate and incubated for one hour on an orbital shaker at room temperature. […] The plate was again washed three times with PBST, and Read Buffer T (1×) was added to the plate. The plate was read on MA600 Imager, and competition was assessed as a measure of the ability of the antibody to block Gal9-SULFOTag signal to TIM-3 receptor.

For series [5], the system named is THP-1 cells engineered to overexpress TIM-3. The experiment in a line: T cell-mediated killing of TIM-3-overexpressing versus parental THP-1 cells (co-culture, flow cytometry). The format is cell-based, human. To be noted: 25 μg/ml; 3 days co-culture; anti-CD3/anti-CD28 beads. As to the method:
The ratio between TIM-3-expressing THP-1 cells and parental THP-1 cells (“fold” in y-axis of graph) was calculated and normalized to conditions without anti-CD3/anti-CD28 bead stimulation. The x-axis of the graph denotes the stimulation amount as number of beads per cell. Data represents one of two independent experiments.
THP-1 cells express TIM-3 mRNA but low to no TIM-3 protein on the cell surface. […] TIM-3 Flag-tagged THP-1 cells were labeled with 2 μM CFSE (Thermo Fisher Scientific), and THP-1 parental cells were labeled with 2 μM CTV (Thermo Fisher Scientific), according to manufacturer instructions. Co-culture assays were performed in 96-well round-bottom plates. […] Cells were then detected and counted by flow cytometry. The ratio between TIM-3-expressing THP-1 cells and parental THP-1 cells (“fold” in y-axis of graph) was calculated and normalized to conditions without anti-CD3/anti-CD28 bead stimulation. […]
Background: In flow cytometry, cells or beads pass a laser one at a time.

The subject of series [6] is rodent and cynomolgus monkey TGF-β. The experiment in a line: Species cross-reactivity of NIS793. The format is binding.
The test system of series [7] is IL-1 signaling. Particulars: mouse model of disease; cited from earlier work.
The mark [8] stands for this setting: single agent, 1 mg/kg i.p. daily x5.

Regarding `Nc1ncn([C@H]2C[C@H](O)[C@@H](CO)O2)c(=O)n1` [decitabine, 4-amino-1-(2-deoxy-beta-D-erythro-pentofuranosyl)-1,3,5-triazin-2(1H)-one], in series [1] (day 56 post-implantation), the “leukemic burden, hCD45+ cells in circulation” value stood at 66%. Moreover, the “leukemic burden, hCD45+ cells in peripheral blood” value in series [1] (group average, day 49 post-implant or day 14 post-treatment start, decitabine 1 mg/kg i.p. daily x5, MBG453 10 mg/kg i.p. weekly) was 51%. In addition, the anti-tumor activity entry in series [1] (setting [8]) is given as “moderate anti-tumor activity”; in series [2] (setting [8]), “significant anti-tumor activity”. Besides, the “leukemic burden, hCD45+ cells” value in series [2] (group average, day 53 post-implant or day 21 post-treatment start) is on record as 1%. Also, in series [3] (21 patients with myelofibrosis), the response is reported as 7 of 19. The “Grade 3/4 neutropenia” value in series [3] (myelofibrosis cohort) was 95 % of patients. For the same molecule, in series [3] (myelofibrosis cohort), the “Grade 3/4 thrombocytopenia” value is reported as 52 % of patients.
Regarding MBG453 F(ab): F(ab) fragment of MBG453, the “block of the interaction between TIM-3 and Galectin-9 (Gal9-SULFOTag signal to TIM-3)” value in series [4] is given as “partially blocked”. In addition, in series [5], the “T cell-mediated killing of TIM-3-overexpressing THP-1 cells relative to parental THP-1 cells” value is given as “not”.
As for “MBG453 F(ab′)2: F(ab′)2 fragment of MBG453”, the “block of the interaction between TIM-3 and Galectin-9 (Gal9-SULFOTag signal to TIM-3)” value in series [4] is “partially blocked”.
As for “NIS793: fully human IgG2 monoclonal antibody that specifically binds and neutralizes TGF-beta 1 and 2 ligands”, the “cross-reactivity with rodent and cynomolgus monkey TGF-β” value in series [6] is listed as “cross-reacts”.
Consider “anakinra: recombinant IL-1 receptor antagonist (IL-1Ra)”, for which, in series [7], the “BM MSC frequency” value is listed as “increased” and the platelet counts entry is recorded as “reduced”.
